Test results: patent US20250387400A1, “TYK2 INHIBITORS” (BIOGEN MA INC., priority 2022, published 2025)
Where two headings read alike, the source gives them in different places.

Key:
Type in all cases: biochemical
[1] = target: T1, catalytic kinase (JH1) domain of human TYK2 (Homo sapiens, UniProt P29597); test: ADP-Glo kinase assay, TYK2 kinase domain
T1 construct: recombinantly generated catalytic kinase (also known as JH1) domain of human JAK1, JAK2, JAK3 and TYK2
T1 sequence (P29597 897-1176 limits assumed): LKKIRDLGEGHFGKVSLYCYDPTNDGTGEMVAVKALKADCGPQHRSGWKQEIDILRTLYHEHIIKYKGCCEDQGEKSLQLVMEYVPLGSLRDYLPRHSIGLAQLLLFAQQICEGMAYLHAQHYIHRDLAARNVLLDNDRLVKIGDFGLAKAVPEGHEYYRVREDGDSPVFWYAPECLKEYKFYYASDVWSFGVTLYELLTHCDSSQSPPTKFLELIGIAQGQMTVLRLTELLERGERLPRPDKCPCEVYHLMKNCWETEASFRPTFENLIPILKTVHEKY
Procedure: (§1) As summarized in Table 3 below, compounds of the disclosure were assessed for their ability to inhibit TYK2, JAK1, JAK2, and JAK3 activity.
(§2) The kinase activity of recombinantly generated catalytic kinase (also known as JH1) domain of human JAK1, JAK2, JAK3 and TYK2 were evaluated in a plate-based assay using the ADP-Glo™ Kinase Assay platform. […] The reactions proceed for 100 minutes and the catalytic activity is quantified by first depleting the unused ATP, converting the hydrolyzed ADP into ATP to generate luminescence in a luciferase reaction; which is the basis of the ADP-Glo platform. Compounds are tested at either 10 μM or 1 μM top concentration, 11 points of 3-fold dilution. The data is normalized and the percent activity versus log concentration of compound is fitted with a 4-parameter logistic model to generate a curve and an IC50 value.

[2] = target: T2, catalytic kinase (JH1) domain of human JAK1 (Homo sapiens, UniProt P23458); test: ADP-Glo kinase assay, JAK1 kinase domain
T2 construct: 4 nM of recombinant JAK1 kinase domain is used to phosphorylate
Procedure: as §1, §2

[3] = target: T3, catalytic kinase (JH1) domain of human JAK2 (Homo sapiens, UniProt O60674); test: ADP-Glo kinase assay, JAK2 kinase domain
T3 construct: Catalytic activities of recombinant JAK2, JAK3 and TYK2 kinase domain
Procedure: as §1, §2

[4] = target: T4, catalytic kinase (JH1) domain of human JAK3 (Homo sapiens, UniProt P52333); test: ADP-Glo kinase assay, JAK3 kinase domain
T4 construct: Catalytic activities of recombinant JAK2, JAK3 and TYK2 kinase domain
Procedure: as §1, §2

[5] = 2 nM recombinant TYK2 kinase domain, 50 μM JAK3-974 peptide, 10 μM ATP, 100 minutes, read-out: TYK2 biochem IC50 (nM) Mean
[6] = 4 nM recombinant JAK1 kinase domain, 50 μM JAK3-342 peptide, 35 μM ATP, 100 minutes, read-out: JAK1 biochem IC50 (nM) Mean
[7] = 0.2 nM recombinant JAK2 kinase domain, 50 μM JAK3-974 peptide, 15 μM ATP, 100 minutes, read-out: JAK2 biochem IC50 (nM) Mean
[8] = 0.3 nM recombinant JAK3 kinase domain, 50 μM JAK3-974 peptide, 4 μM ATP, 100 minutes, read-out: JAK3 biochem IC50 (nM) Mean

T2 sequence (P23458 875-1153 limits assumed): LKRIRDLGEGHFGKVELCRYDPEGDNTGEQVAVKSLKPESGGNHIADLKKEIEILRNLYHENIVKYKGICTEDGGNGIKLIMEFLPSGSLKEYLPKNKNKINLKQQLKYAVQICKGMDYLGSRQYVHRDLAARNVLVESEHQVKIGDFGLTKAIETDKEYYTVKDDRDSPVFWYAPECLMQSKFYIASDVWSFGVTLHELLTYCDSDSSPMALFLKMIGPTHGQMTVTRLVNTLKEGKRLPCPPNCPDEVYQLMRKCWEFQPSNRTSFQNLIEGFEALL
T4 sequence (P52333 822-1111 limits assumed): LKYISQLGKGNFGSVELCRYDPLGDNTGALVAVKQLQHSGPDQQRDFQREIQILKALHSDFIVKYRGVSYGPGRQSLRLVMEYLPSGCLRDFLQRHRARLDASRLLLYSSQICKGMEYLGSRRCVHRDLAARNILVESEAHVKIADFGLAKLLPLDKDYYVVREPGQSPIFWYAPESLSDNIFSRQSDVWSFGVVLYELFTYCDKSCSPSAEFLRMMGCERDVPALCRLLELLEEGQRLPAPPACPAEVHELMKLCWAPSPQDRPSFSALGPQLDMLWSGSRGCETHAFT
T3 sequence (O60674 849-1124 limits assumed): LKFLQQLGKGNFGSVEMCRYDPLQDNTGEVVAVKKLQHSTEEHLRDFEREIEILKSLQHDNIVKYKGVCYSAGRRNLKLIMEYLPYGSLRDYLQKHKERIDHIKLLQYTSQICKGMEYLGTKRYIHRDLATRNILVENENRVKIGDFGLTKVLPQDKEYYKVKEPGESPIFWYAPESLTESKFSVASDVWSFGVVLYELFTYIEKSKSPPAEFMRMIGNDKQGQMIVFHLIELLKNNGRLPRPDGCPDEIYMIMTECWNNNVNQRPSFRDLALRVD

IC50 [1, 5] [nM] | IC50 [2, 6] [nM] | IC50 [3, 7] [nM] | IC50 [4, 8] [nM] | Compound | IC50 [1] [nM] | IC50 [2] [nM] | IC50 [3] [nM] | IC50 [4] [nM]
6.95 | 88 | 54 | 460 | COCC[C@]1(C#N)C[C@@H](N2C3CCC2CN(c2ccnn4cc(-c5cnn(C)c5)cc24)C3)C1 [Example 39, (1s,3s)-1-(2-methoxyethyl)-3-(3-(6-(1-methyl-1H-pyrazol-4-yl)pyrrolo[1,2-b]pyridazin-4-yl)-3,8-diazabicyclo[3.2.1]octan-8-yl)cyclobutane-1-carbonitrile] |  |  |  | 
100 | 675 | 400 | 2400 | COC[C@]1(C#N)C[C@H](N2C3CCC2CN(c2ccnn4cc(-c5cnn(C)c5)cc24)C3)C1 [Example 42, (1s,3s)-1-(methoxymethyl)-3-(3-(6-(1-methyl-1H-pyrazol-4-yl)pyrrolo[1,2-b]pyridazin-4-yl)-3,8-diazabicyclo[3.2.1]octan-8-yl)cyclobutane-1-carbonitrile] |  |  |  | 
3.7 | 73 | 39 | 260 | COC[C@]1(C#N)C[C@@H](N2C3CCC2CN(c2ccnn4cc(-c5cnn(C)c5)cc24)C3)C1 [Example 43, (1r,3r)-1-(methoxymethyl)-3-(3-(6-(1-methyl-1H-pyrazol-4-yl)pyrrolo[1,2-b]pyridazin-4-yl)-3,8-diazabicyclo[3.2.1]octan-8-yl)cyclobutane-1-carbonitrile] |  |  |  | 
82 | 1700 | 900 | 3550 | Cn1cc(-c2cc3c(N4CC5CCC(C4)N5[C@H]4C[C@@H](CC#N)C4)ccnn3c2)cn1 [Example 44, 2-((1s,3s)-3-(3-(6-(1-methyl-1H-pyrazol-4-yl)pyrrolo[1,2-b]pyridazin-4-yl)-3,8-diazabicyclo[3.2.1]octan-8-yl)cyclobutyl)acetonitrile] |  |  |  | 
195 | 2400 | 2700 | 9400 | Cn1cc(-c2cc3c(N4CC5CCC(C4)N5[C@H]4C[C@H](CC#N)C4)ccnn3c2)cn1 [Example 45, 2-((1r,3r)-3-(3-(6-(1-methyl-1H-pyrazol-4-yl)pyrrolo[1,2-b]pyridazin-4-yl)-3,8-diazabicyclo[3.2.1]octan-8-yl)cyclobutyl)acetonitrile] |  |  |  | 
715 | 4200 | 5700 | > 10000 | COc1cc(-c2cc3c(N4CC5CCC(C4)N5C4COC4)ccnn3c2)cnn1 [Example 53, 6-(6-methoxypyridazin-4-yl)-4-(8-(oxetan-3-yl)-3,8-diazabicyclo[3.2.1]octan-3-yl)pyrrolo[1,2-b]pyridazine] |  |  |  | 
72 | 420 | 305 | 1600 | COc1cc(-c2cc3c(N4CC5CCC(C4)N5C4CC(C#N)C4)ccnn3c2)cnn1 (stereo not drawn) [Example 54, 3-(3-(6-(6-methoxypyridazin-4-yl)pyrrolo[1,2-b]pyridazin-4-y1)-3,8-diazabicyclo[3.2.1]octan-8-yl)cyclobutane-1-carbonitrile] |  |  |  | 
90 | 820 | 950 | > 10000 | c1cc(-c2cc3c(N4CC5CCC(C4)N5C4COC4)ccnn3c2)cnn1 [Example 56, 4-(8-(oxetan-3-yl)-3,8-diazabicyclo[3.2.1]octan-3-yl)-6-(pyridazin-4-yl)pyrrolo[1,2-b]pyridazine] |  |  |  | 
13 | 134 | 108 | 690 | Cc1cc(-c2cc3c(N4CC5CCC(C4)N5C4CC(C#N)C4)ccnn3c2)cnn1 (stereo not drawn) [Example 57, 3-(3-(6-(6-methylpyridazin-4-yl)pyrrolo[1,2-b]pyridazin-4-yl)-3,8-diazabicyclo[3.2.1]octan-8-yl)cyclobutane-1-carbonitrile] |  |  |  | 

More lines, now with the values behind:

Compound | IC50 [1, 5] [nM] | IC50 [2, 6] [nM] | IC50 [3, 7] [nM] | IC50 [4, 8] [nM] | IC50 [1] [nM] | IC50 [2] [nM] | IC50 [3] [nM] | IC50 [4] [nM]
Cn1cc(-c2cc3c(N4CC5CCC(C4)N5C4CC(F)(F)C4)ccnn3c2)cn1 [Example 52, 4-(8-(3,3-difluorocyclobutyl)-3,8-diazabicyclo[3.2.1]octan-3-yl)-6-(1-methyl-1H-pyrazol-4-yl)pyrrolo[1,2-b]pyridazine] | 1.9 | 57.2 | 35 | 574 |  |  |  | 
N#CC1CC(N2C3CCC2CN(c2ccnn4cc(-c5ccnnc5)cc24)C3)C1 (stereo not drawn) [Example 55, 3-(3-(6-(pyridazin-4-yl)pyrrolo[1,2-b]pyridazin-4-y1)-3,8-diazabicyclo[3.2.1]octan-8-yl)cyclobutane-1-carbonitrile] |  |  |  |  | 11.5 | 130 | 80.5 | 625
Cc1cc(-c2cc3c(N4CC5CCC(C4)N5[C@H]4C[C@H](C#N)C4)ccnn3c2)on1 [Example 58, (1R,3r)-3-(3-(6-(3-methylisoxazol-5-yl)pyrrolo[1,2-b]pyridazin-4-yl)-3,8-diazabicyclo[3.2.1]octan-8-yl)cyclobutane-1-carbonitrile] |  |  |  |  | 40.5 | 795 | 385 | 3450
Cc1cc(-c2cc3c(N4CC5CCC(C4)N5[C@H]4C[C@@H](C#N)C4)ccnn3c2)on1 [Example 59, (1S,3s)-3-(3-(6-(3-methylisoxazol-5-yl)pyrrolo[1,2-b]pyridazin-4-yl)-3,8-diazabicyclo[3.2.1]octan-8-yl)cyclobutane-1-carbonitrile] |  |  |  |  | 4.25 | 65.5 | 26 | 220
N#C[C@H]1C[C@@H](N2C3CCC2CN(c2ccnn4cc(-c5cnn(C(F)F)c5)cc24)C3)C1 [Example 60, (1S,3s)-3-(3-(6-(1-(difluoromethyl)-1H-pyrazol-4-yl)pyrrolo[1,2-b]pyridazin-4-yl)-3,8-diazabicyclo[3.2.1]octan-8-yl)cyclobutane-1-carbonitrile] | 2.38 | 25.5 | 17.5 | 132 |  |  |  | 
Cn1cc(-c2cc3c(N4CC5CCC(C4)N5[C@H]4C[C@H](C#N)C4)ncnc3[nH]2)cn1 [Example 63, (1R,3r)-3-(3-(6-(1-methyl-1H-pyrazol-4-yl)-7H-pyrrolo[2,3-d]pyrimidin-4-yl)-3,8-diazabicyclo[3.2.1]octan-8-yl)cyclobutane-1-carbonitrile] | 260 | 4250 | 1800 | 1650 |  |  |  | 
Cn1cc(-c2cc3c(N4CC5CCC(C4)N5[C@H]4C[C@@H](C#N)C4)ncnc3[nH]2)cn1 [Example 64, (1S,3s)-3-(3-(6-(1-methyl-1H-pyrazol-4-yl)-7H-pyrrolo[2,3-d]pyrimidin-4-yl)-3,8-diazabicyclo[3.2.1]octan-8-yl)cyclobutane-1-carbonitrile] | 41.5 | 340 | 260 | 205 |  |  |  | 
Cn1cc(-c2cn3nccc(N4CC5CCC(C4)N5[C@H]4C[C@@H](C#N)C4)c3n2)cn1 [Example 65, (1S,3s)-3-(3-(2-(1-methyl-1H-pyrazol-4-yl)imidazo[1,2-b]pyridazin-8-yl)-3,8-diazabicyclo[3.2.1]octan-8-yl)cyclobutane-1-carbonitrile] |  |  |  |  | 70.7 | 227 | 293 | 1650
Cn1cc(-c2cn3nccc(N4CC5CCC(C4)N5[C@H]4C[C@H](C#N)C4)c3n2)cn1 [Example 66, (1R,3r)-3-(3-(2-(1-methyl-1H-pyrazol-4-yl)imidazo[1,2-b]pyridazin-8-yl)-3,8-diazabicyclo[3.2.1]octan-8-yl)cyclobutane-1-carbonitrile] |  |  |  |  | 3.83 | 15.1 | 21.3 | 102
